These results are taken from US12473296B2, “Perk inhibiting compounds” (HiberCell, Inc., priority 2019, dated 2025).

In this experiment the target is PERK (Homo sapiens (Human), UniProt Q9NZJ5). The experiment can be described thus: PERK cellular assay (TR-FRET, HEK293-EGFP-eIF2α cells, tunicamycin-induced ER stress). It is filed as cell-based. The settings on record: tunicamycin 2 hours, read-out: Cellular IC50 (μM) (EIF2a). How it is done: Stable cell lines were created in HEK293 cells using lentiviral particles harboring an expression vector for GFP-eIF2α. Cells were selected using puromycin and enriched using fluorescence activated cell sorting against GFP. HEK293-EGFP-eIF2α cells were plated at 5000 cells/well in 384-well assay plates and incubated overnight at 37° C., 5% CO2. Inhibitor compounds were added to the wells by Echo acoustic dispensing and incubated for 30 minutes at 37° C., 5% CO2 prior to induction of ER stress by addition of tunicamycin to […] for 2 hours. Cells were lysed and TR-FRET was measured in an EnVision plate reader (PerkinElmer). FRET ratio data was normalized to signal from lysates treated with DMSO vehicle control and plotted as percent inhibition against 10-point; 3-fold dilution series of inhibitors. IC50 values were calculated using 4-parameter logistical fitting in XLFit.
PERK, sequence (Q9NZJ5 30-1116): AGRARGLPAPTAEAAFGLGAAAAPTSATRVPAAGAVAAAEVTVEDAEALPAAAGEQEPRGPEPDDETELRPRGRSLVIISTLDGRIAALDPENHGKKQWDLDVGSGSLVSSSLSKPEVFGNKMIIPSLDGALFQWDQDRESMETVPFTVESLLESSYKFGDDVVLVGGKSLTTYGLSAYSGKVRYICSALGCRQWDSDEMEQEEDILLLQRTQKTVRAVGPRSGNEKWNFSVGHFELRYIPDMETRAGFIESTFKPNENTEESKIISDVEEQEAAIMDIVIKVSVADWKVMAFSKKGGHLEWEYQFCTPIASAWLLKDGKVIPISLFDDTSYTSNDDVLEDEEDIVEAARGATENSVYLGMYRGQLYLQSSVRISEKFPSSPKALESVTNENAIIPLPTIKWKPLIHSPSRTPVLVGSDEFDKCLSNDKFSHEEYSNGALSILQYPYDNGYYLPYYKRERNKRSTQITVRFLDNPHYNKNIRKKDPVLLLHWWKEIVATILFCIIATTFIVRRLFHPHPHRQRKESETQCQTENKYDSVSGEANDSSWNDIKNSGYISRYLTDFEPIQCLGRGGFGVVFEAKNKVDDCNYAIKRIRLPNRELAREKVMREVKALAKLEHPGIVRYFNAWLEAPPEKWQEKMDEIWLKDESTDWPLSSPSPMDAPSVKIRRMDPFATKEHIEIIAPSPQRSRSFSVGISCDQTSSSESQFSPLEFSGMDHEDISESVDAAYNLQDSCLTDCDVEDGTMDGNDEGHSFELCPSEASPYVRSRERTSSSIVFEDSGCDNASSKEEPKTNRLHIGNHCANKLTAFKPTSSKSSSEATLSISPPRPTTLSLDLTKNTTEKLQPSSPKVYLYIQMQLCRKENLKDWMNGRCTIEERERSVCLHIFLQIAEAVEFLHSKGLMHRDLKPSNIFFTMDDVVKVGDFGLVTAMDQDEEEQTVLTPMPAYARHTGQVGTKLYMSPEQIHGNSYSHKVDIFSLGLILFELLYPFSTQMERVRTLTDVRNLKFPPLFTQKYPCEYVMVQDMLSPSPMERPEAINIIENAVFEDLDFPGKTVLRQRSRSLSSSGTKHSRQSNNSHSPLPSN
(In general: In TR-FRET formats the signal depends on donor and acceptor labels being close together.)
By IC50 is commonly meant the concentration needed to halve the response being measured. For `CCc1cc(NC(=O)C(O)c2ccccc2C)ccc1-c1cnc(N)c(C(=O)NC(C)C)c1` (single isomer, unassigned) [Example 104, 2-amino-5-(2-ethyl-4-(2-hydroxy-2-(o-tolyl)acetamido)phenyl)-N-isopropylnicotinamide], the IC50 was in the range of 0.051 to 0.1 µM. Under `CCc1cc(NC(=O)C(O)c2ccccc2C)ccc1-c1cnc(N)c(C(=O)NC(C)C)c1` (single isomer, unassigned) [Example 105, 2-amino-5-(2-ethyl-4-(2-hydroxy-2-(o-tolyl)acetamido)phenyl)-N-isopropylnicotinamide] stands 0.501 to 1 µM.

`Cc1cc(NC(=O)C(O)c2cc(F)cc(F)c2)ccc1-c1cnc(N)c(C(=O)NC2CCOCC2)n1` (single isomer, unassigned) [Example 144, 3-amino-6-(4-(2-(3,5-difluorophenyl)-2-hydroxyacetamido)-2-methylphenyl)-N-(tetrahydro-2H-pyran-4-yl)pyrazine-2-carboxamide]: the IC50 was 0.501 to 1 µM.

As to `Cc1cc(NC(=O)C(O)c2cc(F)cc(F)c2)ccc1-c1cnc(N)c(C(=O)NC2CCOCC2)n1` (single isomer, unassigned) [Example 145, 3-amino-6-(4-(2-(3,5-difluorophenyl)-2-hydroxyacetamido)-2-methylphenyl)-N-(tetrahydro-2H-pyran-4-yl)pyrazine-2-carboxamide], the IC50 lay in the range of 0.051 to 0.1 µM.

Turning to `COCCNC(=O)c1nc(-c2ccc(NC(=O)C(O)c3cc(F)cc(F)c3)cc2C)cnc1N` (single isomer, unassigned) [Example 147, 3-amino-6-(4-(2-(3,5-difluorophenyl)-2-hydroxyacetamido)-2-methylphenyl)-N-(2-methoxyethyl) pyrazine-2-carboxamide], the IC50 lay within 0.026 to 0.05 µM. The same measure for `COCCNC(=O)c1nc(-c2ccc(NC(=O)C(O)c3cc(F)cc(F)c3)cc2C)cnc1N` (single isomer, unassigned) [Example 148, 3-amino-6-(4-(2-(3,5-difluorophenyl)-2-hydroxyacetamido)-2-methylphenyl)-N-(2-methoxyethyl) pyrazine-2-carboxamide]: 0.501 to 1 µM; for `Cc1cc(NC(=O)C(O)c2cc(F)cc(F)c2)ccc1-c1cnc(N)c(C(=O)NC2CCOCC2)c1` (stereo not shown) [Example 50, 2-amino-5-(4-(2-(3,5-difluorophenyl)-2-hydroxyacetamido)-2-methylphenyl)-N-(tetrahydro-2H-pyran-4-yl)nicotinamide]: 0.051 to 0.1 µM. The same measure for `Cc1cc(NC(=O)C(O)c2cc(F)cc(F)c2)ccc1-c1cnc(N)c(C(=O)NC2CCOCC2)c1` (stereo not shown) [Example 51, 2-amino-5-(4-(2-(3,5-difluorophenyl)-2-hydroxyacetamido)-2-methylphenyl)-N-(tetrahydro-2H-pyran-4-yl)nicotinamide]: 0.501 to 1 µM; for `COCCNC(=O)c1cc(-c2ccc(NC(=O)C(O)c3cc(F)cc(F)c3)cc2C)cnc1N` (stereo not shown) [Example 54, 2-amino-5-(4-(2-(3,5-difluorophenyl)-2-hydroxyacetamido)-2-methylphenyl)-N-(2-methoxyethyl) nicotinamide]: 0.051 to 0.1 µM; for `COCCNC(=O)c1cc(-c2ccc(NC(=O)C(O)c3cc(F)cc(F)c3)cc2C)cnc1N` (stereo not shown) [Example 55, 2-amino-5-(4-(2-(3,5-difluorophenyl)-2-hydroxyacetamido)-2-methylphenyl)-N-(2-methoxyethyl) nicotinamide]: 1 to 2 µM. Turning to `Cc1cc(NC(=O)C(O)c2ccccc2C)ccc1-c1cnc(N)c(C(=O)NC(C)C)c1` (stereo not shown) [Example 64, 2-amino-5-(4-(2-hydroxy-2-(o-tolyl)acetamido)-2-methylphenyl)-N-isopropylnicotinamide], the IC50 was 0.101 to 0.25 µM. Under `Cc1cc(NC(=O)C(O)c2ccccc2C)ccc1-c1cnc(N)c(C(=O)NC(C)C)c1` (stereo not shown) [Example 65, 2-amino-5-(4-(2-hydroxy-2-(o-tolyl)acetamido)-2-methylphenyl)-N-isopropylnicotinamide] stands 2 to 3 µM; under `Cc1cc(NC(=O)C(O)c2cccc(C(F)(F)F)c2)ccc1-c1cnc(N)c(C(=O)NC(C)C)c1` (stereo not shown) [Example 70, 2-amino-5-(4-(2-hydroxy-2-(3-(trifluoromethyl)phenyl)acetamido)-2-methylphenyl)-N-isopropylnicotinamide], 0.001 to 0.025 µM; under `Cc1cc(NC(=O)C(O)c2cccc(C(F)(F)F)c2)ccc1-c1cnc(N)c(C(=O)NC(C)C)c1` (stereo not shown) [Example 71, 2-amino-5-(4-(2-hydroxy-2-(3-(trifluoromethyl)phenyl)acetamido)-2-methylphenyl)-N-isopropylnicotinamide], 0.501 to 1 µM.

In the case of `Cc1ccccc1C(O)C(=O)Nc1ccc(-c2cnc(N)c(C(=O)NC(C)C)c2)c(Cl)c1` (stereo not shown) [Example 90, 2-amino-5-(2-chloro-4-(2-hydroxy-2-(o-tolyl)acetamido)phenyl)-N-isopropylnicotinamide], the IC50 was in the range of 0.051 to 0.1 µM. Under `Cc1ccccc1C(O)C(=O)Nc1ccc(-c2cnc(N)c(C(=O)NC(C)C)c2)c(Cl)c1` (stereo not shown) [Example 91, 2-amino-5-(2-chloro-4-(2-hydroxy-2-(o-tolyl)acetamido)phenyl)-N-isopropylnicotinamide] stands 0.251 to 0.5 µM. As to `Cc1cccc(C(O)C(=O)Nc2ccc(-c3cnc(N)c(C(=O)NC(C)C)c3)c(Cl)c2)c1` (stereo not shown) [Example 92, 2-amino-5-(2-chloro-4-(2-hydroxy-2-(m-tolyl)acetamido)phenyl)-N-isopropylnicotinamide], the IC50 lay within 0.001 to 0.025 µM. Under `Cc1cccc(C(O)C(=O)Nc2ccc(-c3cnc(N)c(C(=O)NC(C)C)c3)c(Cl)c2)c1` (stereo not shown) [Example 93, 2-amino-5-(2-chloro-4-(2-hydroxy-2-(m-tolyl)acetamido)phenyl)-N-isopropylnicotinamide] stands 0.101 to 0.25 µM.

For the molecule `Cc1cc(NC(=O)C(O)c2cc(F)cc(F)c2)ccc1-c1cnc(N)c(C(=O)NC2CCC2)n1` (stereo not shown) [Example 140, 3-amino-N-cyclobutyl-6-(4-(2-(3,5-difluorophenyl)-2-hydroxyacetamido)-2-methylphenyl) pyrazine-2-carboxamide], the IC50 was 0.026 to 0.05 µM. With `Cc1cc(NC(=O)C(O)c2cc(F)cc(F)c2)ccc1-c1cnc(N)c(C(=O)NC2CCC2)n1` (stereo not shown) [Example 141, 3-amino-N-cyclobutyl-6-(4-(2-(3,5-difluorophenyl)-2-hydroxyacetamido)-2-methylphenyl) pyrazine-2-carboxamide], the IC50 lay in the range of 0.101 to 0.25 µM. With `Cc1cc(NC(=O)C(O)c2cc(F)cc(F)c2)ccc1-c1cnc(N)c(C(=O)NC2COC2)n1` (stereo not shown) [Example 142, 3-amino-6-(4-(2-(3,5-difluorophenyl)-2-hydroxyacetamido)-2-methylphenyl)-N-(oxetan-3-yl)pyrazine-2-carboxamide], the IC50 is 1 to 2 µM.

Take `Cc1cc(NC(=O)C(O)c2cc(F)cc(F)c2)ccc1-c1cnc(N)c(C(=O)NC2COC2)n1` (stereo not shown) [Example 143, 3-amino-6-(4-(2-(3,5-difluorophenyl)-2-hydroxyacetamido)-2-methylphenyl)-N-(oxetan-3-yl)pyrazine-2-carboxamide]: the IC50 fell in the range of 0.026 to 0.05 µM. Under `CC(C)NC(=O)c1nc(-c2ccc(NC(=O)C(O)c3cc(F)cc(F)c3)cc2Cl)cnc1N` (stereo not shown) [Example 162, 3-amino-6-(2-chloro-4-(2-(3,5-difluorophenyl)-2-hydroxyacetamido)phenyl)-N-isopropylpyrazine-2-carboxamide] stands 0.101 to 0.25 µM; under `CC(C)NC(=O)c1nc(-c2ccc(NC(=O)C(O)c3cc(F)cc(F)c3)cc2Cl)cnc1N` (stereo not shown) [Example 163, 3-amino-6-(2-chloro-4-(2-(3,5-difluorophenyl)-2-hydroxyacetamido)phenyl)-N-isopropylpyrazine-2-carboxamide], 0.051 to 0.1 µM; under `Nc1ncc(-c2ccc(NC(=O)C(O)c3cc(F)cc(F)c3)cc2Cl)nc1C(=O)NC1CC1` (stereo not shown) [Example 166, 3-amino-6-(2-chloro-4-(2-(3,5-difluorophenyl)-2-hydroxyacetamido)phenyl)-N-cyclopropyl-pyrazine-2-carboxamide], 0.026 to 0.05 µM. The same measure for `Nc1ncc(-c2ccc(NC(=O)C(O)c3cc(F)cc(F)c3)cc2Cl)nc1C(=O)NC1CC1` (stereo not shown) [Example 167]: 0.101 to 0.25 µM; for `Cc1ccccc1CC(=O)Nc1ccc(-c2cnc(N)c(C(=O)NC(C)C)c2)c(C)c1` [Example 195, 2-amino-N-isopropyl-5-(2-methyl-4-(2-(o-tolyl)acetamido)phenyl)nicotinamide]: 0.251 to 0.5 µM; for `Cc1cccc(CC(=O)Nc2ccc(-c3cnc(N)c(C(=O)NC(C)C)c3)c(C)c2)c1` [Example 196, 2-amino-N-isopropyl-5-(2-methyl-4-(2-(m-tolyl)acetamido)phenyl)nicotinamide]: 0.251 to 0.5 µM.
